Experimental data: patent US8247211B2, “Glycopeptide antibiotics” (American Cyanamid Company, priority 2001, dated 2012)
≈ marks a conversion by molar mass, not a printed value. Each block holds one molecule with its values, some of them ahead of it.

Key:
Assay in all cases: In vitro antibacterial evaluation: minimum inhibitory concentration (MIC), broth dilution method
Format in all cases: cell-based
Conditions in all cases: 18 hours at 35° C.
Enterococcus sp. = tested on: Enterococcus sp.
Procedure, shortened: (§1)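 Following NCCLS approved standard M7-A2, compounds are serially diluted from 64 to 0.06 μg/mL in Muller-Hinton II […] and inoculated at 5×10^5 CFU/mL; the MIC is the minimum concentration at which growth is inhibited.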

Staphylococcus sp. = tested on: Staphylococcus sp.
Procedure, shortened: as §1

Escherichia coli = tested on: Escherichia coli
Procedure, shortened: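 Inoculum: 5×10^5 CFU/mL. Range: 64-0.06 μg/mL. Medium: Muller-Hinton II […]; NCCLS M7-A2 broth dilution. Endpoint: lowest concentration inhibiting growth. Strains include methicillin-, penicillin- and/or vancomycin-resistant clinical isolates.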

Streptococcus sp. = tested on: Streptococcus sp.
Procedure, shortened: as §1

[1] = Enterococcus faecalis (GC 2242)
[2] = Enterococcus faecalis (GC 2691)
[3] = Enterococcus faecalis (GC 3059)
[4] = broth dilution, inoculum 5×10^5 CFU/mL
[5] = Streptococcus agalactiae (GC 4564)
[6] = Streptococcus pneumoniae (ATCC 6301)
[7] = Streptococcus pneumoniae (GC 1894)
[8] = Streptococcus pneumoniae (GC 4565)
[9] = Streptococcus pyogenes (GC 4563)

MIC Enterococcus avium (GC 4558) (Enterococcus sp.): 8 µg/mL (≈ 5.72 µM)
MIC Enterococcus faecalis (ATCC 29212) (Enterococcus sp.): 8 µg/mL (≈ 5.72 µM)
MIC Enterococcus faecalis (GC 2242) (Enterococcus sp.; [1]): 4 µg/mL (≈ 2.86 µM)
MIC Enterococcus faecalis (GC 2691) (Enterococcus sp.; [2]): 8 µg/mL (≈ 5.72 µM)
MIC Enterococcus faecalis (GC 3059) (Enterococcus sp.; [3]): 8 µg/mL (≈ 5.72 µM)
MIC Enterococcus faecalis (GC 4552) (Enterococcus sp.): 8 µg/mL (≈ 5.72 µM)
MIC Enterococcus faecalis (GC 4553) (Enterococcus sp.): 8 µg/mL (≈ 5.72 µM)
MIC Enterococcus faecalis (GC 4554) (Enterococcus sp.): 8 µg/mL (≈ 5.72 µM)
MIC Enterococcus faecalis (GC 6189) (Enterococcus sp.): 8 µg/mL (≈ 5.72 µM)
MIC Enterococcus faecium (GC 2243) (Enterococcus sp.): 8 µg/mL (≈ 5.72 µM)
MIC Enterococcus faecium (GC 4556) (Enterococcus sp.): 8 µg/mL (≈ 5.72 µM)
MIC Enterococcus faecium (GC 4557) (Enterococcus sp.): 2 µg/mL (≈ 1.43 µM)
MIC Enterococcus faecalis (GC 2242) (Enterococcus sp.; [4]): 4 µg/mL (≈ 2.86 µM)
MIC Enterococcus faecalis (GC 2691) (Enterococcus sp.; [4]): 8 µg/mL (≈ 5.72 µM)
MIC Enterococcus faecalis (GC 3059) (Enterococcus sp.; [4]): 8 µg/mL (≈ 5.72 µM)
MIC Coagulase Negative Staphylococcus (GC 4547) (Staphylococcus sp.): 1 µg/mL (≈ 0.715 µM)
MIC Coagulase Negative Staphylococcus (GC 4548) (Staphylococcus sp.): 1 µg/mL (≈ 0.715 µM)
MIC Coagulase Negative Staphylococcus (GC 4549) (Staphylococcus sp.): 0.5 µg/mL (≈ 0.357 µM)
MIC Coagulase Negative Staphylococcus (GC 4551) (Staphylococcus sp.): 2 µg/mL (≈ 1.43 µM)
MIC Coagulase Negative Staphylococcus (GC 6257) (Staphylococcus sp.): 1 µg/mL (≈ 0.715 µM)
MIC Staphylococcus aureus (ATCC 29213) (Staphylococcus sp.): 2 µg/mL (≈ 1.43 µM)
MIC Staphylococcus aureus (GC 1131) (Staphylococcus sp.): 2 µg/mL (≈ 1.43 µM)
MIC Staphylococcus aureus (GC 3051) (Staphylococcus sp.): 2 µg/mL (≈ 1.43 µM)
MIC Staphylococcus aureus (GC 3053) (Staphylococcus sp.): 2 µg/mL (≈ 1.43 µM)
MIC Staphylococcus aureus (GC 4541) (Staphylococcus sp.): 2 µg/mL (≈ 1.43 µM)
MIC Staphylococcus aureus (GC 4542) (Staphylococcus sp.): 2 µg/mL (≈ 1.43 µM)
MIC Staphylococcus aureus (GC 4544) (Staphylococcus sp.): 2 µg/mL (≈ 1.43 µM)
MIC Staphylococcus aureus (GC 4545) (Staphylococcus sp.): 2 µg/mL (≈ 1.43 µM)
MIC Staphylococcus aureus-SMITH (GC 4543) (Staphylococcus sp.): 2 µg/mL (≈ 1.43 µM)
MIC Escherichia coli (ATCC 25922) (Escherichia coli): 64 µg/mL (≈ 45.7 µM)
MIC Escherichia coli (GC 4559) (Escherichia coli): 64 µg/mL (≈ 45.7 µM)
MIC Escherichia coli (GC 4560) (Escherichia coli): 1 µg/mL (≈ 0.715 µM)
MIC Streptococcus agalactiae (GC 4564) (Streptococcus sp.; [5]): 0.5 µg/mL (≈ 0.357 µM)
MIC Streptococcus pneumoniae (ATCC 6301) (Streptococcus sp.; [6]): 0.25 µg/mL (≈ 0.179 µM)
MIC Streptococcus pneumoniae (GC 1894) (Streptococcus sp.; [7]): 0.12 µg/mL (≈ 0.0857 µM)
MIC Streptococcus pneumoniae (GC 4565) (Streptococcus sp.; [8]): 0.25 µg/mL (≈ 0.179 µM)
MIC Streptococcus pyogenes (GC 4563) (Streptococcus sp.; [9]): 0.5 µg/mL (≈ 0.357 µM)
MIC Streptococcus agalactiae (GC 4564) (Streptococcus sp.; [4]): 0.5 µg/mL (≈ 0.357 µM)
MIC Streptococcus pneumoniae (ATCC 6301) (Streptococcus sp.; [4]): 0.25 µg/mL (≈ 0.179 µM)
MIC Streptococcus pneumoniae (GC 1894) (Streptococcus sp.; [4]): 0.12 µg/mL (≈ 0.0857 µM)
MIC Streptococcus pneumoniae (GC 4565) (Streptococcus sp.; [4]): 0.25 µg/mL (≈ 0.179 µM)
MIC Streptococcus pyogenes (GC 4563) (Streptococcus sp.; [4]): 0.5 µg/mL (≈ 0.357 µM)
Compound: Cc1ccc(COCC2OC(OC3C(CO)OC(Oc4ccc(CC5NC(=O)C(C(C)c6ccccc6)NC(=O)CNC(=O)C(CO)NC(=O)C(C(O)C6CNC(=N)N6C6OC(CO)C(O)C(O)C6O)NC(=O)C(C(O)C6CNC(=N)N6)NC5=O)cc4)C(O)C3O)C(O)C(O)C2O)cc1 (centres unmarked) [Example 234]
MIC Staphylococcus haemolyticus (GC 4546) (Staphylococcus sp.): 1 µg/mL (≈ 0.715 µM)

MIC Enterococcus avium (GC 4558) (Enterococcus sp.): 2 µg/mL (≈ 1.35 µM)
MIC Enterococcus faecalis (ATCC 29212) (Enterococcus sp.): 4 µg/mL (≈ 2.71 µM)
MIC Enterococcus faecalis (GC 2242) (Enterococcus sp.; [1]): 4 µg/mL (≈ 2.71 µM)
MIC Enterococcus faecalis (GC 2691) (Enterococcus sp.; [2]): 2 µg/mL (≈ 1.35 µM)
MIC Enterococcus faecalis (GC 3059) (Enterococcus sp.; [3]): 2 µg/mL (≈ 1.35 µM)
MIC Enterococcus faecalis (GC 4552) (Enterococcus sp.): 4 µg/mL (≈ 2.71 µM)
MIC Enterococcus faecalis (GC 4553) (Enterococcus sp.): 4 µg/mL (≈ 2.71 µM)
MIC Enterococcus faecalis (GC 4554) (Enterococcus sp.): 4 µg/mL (≈ 2.71 µM)
MIC Enterococcus faecalis (GC 6189) (Enterococcus sp.): 2 µg/mL (≈ 1.35 µM)
MIC Enterococcus faecium (GC 2243) (Enterococcus sp.): 4 µg/mL (≈ 2.71 µM)
MIC Enterococcus faecium (GC 4556) (Enterococcus sp.): 4 µg/mL (≈ 2.71 µM)
MIC Enterococcus faecium (GC 4557) (Enterococcus sp.): 2 µg/mL (≈ 1.35 µM)
MIC Enterococcus faecalis (GC 2242) (Enterococcus sp.; [4]): 4 µg/mL (≈ 2.71 µM)
MIC Enterococcus faecalis (GC 2691) (Enterococcus sp.; [4]): 2 µg/mL (≈ 1.35 µM)
MIC Enterococcus faecalis (GC 3059) (Enterococcus sp.; [4]): 2 µg/mL (≈ 1.35 µM)
MIC Coagulase Negative Staphylococcus (GC 4547) (Staphylococcus sp.): 2 µg/mL (≈ 1.35 µM)
MIC Coagulase Negative Staphylococcus (GC 4548) (Staphylococcus sp.): 0.5 µg/mL (≈ 0.338 µM)
MIC Coagulase Negative Staphylococcus (GC 4549) (Staphylococcus sp.): 0.5 µg/mL (≈ 0.338 µM)
MIC Coagulase Negative Staphylococcus (GC 4551) (Staphylococcus sp.): 2 µg/mL (≈ 1.35 µM)
MIC Coagulase Negative Staphylococcus (GC 6257) (Staphylococcus sp.): 1 µg/mL (≈ 0.677 µM)
MIC Staphylococcus aureus (ATCC 29213) (Staphylococcus sp.): 2 µg/mL (≈ 1.35 µM)
MIC Staphylococcus aureus (GC 1131) (Staphylococcus sp.): 2 µg/mL (≈ 1.35 µM)
MIC Staphylococcus aureus (GC 3051) (Staphylococcus sp.): 2 µg/mL (≈ 1.35 µM)
MIC Staphylococcus aureus (GC 3053) (Staphylococcus sp.): 2 µg/mL (≈ 1.35 µM)
MIC Staphylococcus aureus (GC 4541) (Staphylococcus sp.): 2 µg/mL (≈ 1.35 µM)
MIC Staphylococcus aureus (GC 4542) (Staphylococcus sp.): 4 µg/mL (≈ 2.71 µM)
MIC Staphylococcus aureus (GC 4544) (Staphylococcus sp.): 2 µg/mL (≈ 1.35 µM)
MIC Staphylococcus aureus (GC 4545) (Staphylococcus sp.): 2 µg/mL (≈ 1.35 µM)
MIC Staphylococcus aureus-SMITH (GC 4543) (Staphylococcus sp.): 2 µg/mL (≈ 1.35 µM)
MIC Escherichia coli (ATCC 25922) (Escherichia coli): >64 µg/mL
MIC Escherichia coli (GC 4559) (Escherichia coli): >64 µg/mL
MIC Escherichia coli (GC 4560) (Escherichia coli): 1 µg/mL (≈ 0.677 µM)
MIC Streptococcus agalactiae (GC 4564) (Streptococcus sp.; [5]): 0.12 µg/mL (≈ 0.0812 µM)
MIC Streptococcus pneumoniae (ATCC 6301) (Streptococcus sp.; [6]): <0.06 µg/mL
MIC Streptococcus pneumoniae (GC 1894) (Streptococcus sp.; [7]): <0.06 µg/mL
MIC Streptococcus pneumoniae (GC 4565) (Streptococcus sp.; [8]): <0.06 µg/mL
MIC Streptococcus pyogenes (GC 4563) (Streptococcus sp.; [9]): <0.06 µg/mL
MIC Streptococcus agalactiae (GC 4564) (Streptococcus sp.; [4]): 0.12 µg/mL (≈ 0.0812 µM)
MIC Streptococcus pneumoniae (ATCC 6301) (Streptococcus sp.; [4]): <0.06 µg/mL
MIC Streptococcus pneumoniae (GC 1894) (Streptococcus sp.; [4]): <0.06 µg/mL
MIC Streptococcus pneumoniae (GC 4565) (Streptococcus sp.; [4]): <0.06 µg/mL
MIC Streptococcus pyogenes (GC 4563) (Streptococcus sp.; [4]): <0.06 µg/mL
Compound: CC(c1ccccc1)C1NC(=O)CNC(=O)C(CO)NC(=O)C(C(O)C2CNC(=N)N2C2OC(CO)C(O)C(O)C2O)NC(=O)C(C(O)C2CNC(=N)N2)NC(=O)C(Cc2ccc(OC3OC(CO)C(OC4OC(COCc5ccc(Oc6ccccc6)cc5)C(O)C(O)C4O)C(O)C3O)cc2)NC1=O (stereo not drawn) [Example 236, Cyclo[glycyl-β-methylphenylalanyl-O-[4-O-[6-O-(4-phenoxybenzyl)hexopyranosyl]hexopyranosyl]tyrosyl-3-(2-iminoimidazolidin-4-yl)seryl-3-(3-hexopyranosyl-2-iminoimidazolidin-4-yl)serylseryl]]
MIC Staphylococcus haemolyticus (GC 4546) (Staphylococcus sp.): 2 µg/mL (≈ 1.35 µM)
